Assay results taken from patent US20210364494A1, “CELL-SUBSTRATE IMPEDANCE MONITORING OF CANCER CELLS OF DIFFERENT LINEAGE, ORIGIN, OR STAGE” (ACEA BIOSCIENCES, INC., priority 2017, published 2021).

Tests used:
Type in all cases: cell-based, human
[1] = system: NK-92-mediated cytolysis of A549 cells; assay: Inhibition of NK-92-mediated cytolysis of target cells by signaling pathway inhibitors (RT-CES)
Experimental: (FIG. 31A) A549 cells were seeded in the chambers of E-PLATES. Twenty four hours after seeding NK-cells at a density of 16:1 (E/T ratio) were pre-incubated with the different concentrations of the MEK inhibitor PD 98059 for thirty minutes and then added to A549 cells at the indicated time point (arrow). The viability of A549 cells were continually monitored using the RT-CES system. (FIG. 31B) The extent of NK-92 mediated cytolystic activity in the presence of MEK inhibitor was calculated at the indicated times post-NK addition as described in materials and methods section. (FIG. 31C) The effect of PI3 Kinase inhibitor Wortmannin on NK-92 mediated cytolysis of A549 cells. The cells were treated with the inhibitor as described in (FIG. 31A). (FIG. 31D) Percent cytolytic activity of NK-92 cells was calculated at the end of the experiment described in (FIG. 31C).
Cytolytic analysis. Target cells were seeded into the chambers of either 16-chamber or 96-chamber E-plate in 100 μL of media. Cell growth was dynamically monitored using the RT-CES system for a period of 24-34 hours, depending on the experiment until they reached log growth phase and formed a monolayer. […]
(§1) Inhibition of NK-mediated cytolysis of target cells by agents which block the signaling pathways leading to cytotoxicity. […] We calculated percent inhibition of cytolysis for both inhibitors at different time points after NK addition. […]

A549 cells = assay: Dynamic monitoring of drug interaction with target cells by RT-CES
Experimental: Drug Treatment and Cytotoxicity Assessment. […] The indicated cell numbers were seeded per chamber of ACEA's 16X or 96X E-Plate (cartridge for monitoring cell-substrate impedance) in 100 μL final volume.
In order to observe the kinetics of drug interaction with target cells, A549 non-small lung cancer cells were seeded in ACEA 96X E-Plate™ and continuously monitored until the cells reached the log growth phase at which point different concentrations of paclitaxel were added to the cells at the indicated final concentration. […] While it remains to be determined if this phenomenon is due to metabolism and inactivation of paclitaxel or due to the emergence of paclitaxel-resistant subpopulation, this experiment clearly exemplifies the tremendous advantage of real-time measurement which is offered by the RT-CES system and allows the user to the opportunity to observe and assess the entire history of drug interaction with the target cells which provides further information in addition to cell viability or cytotoxicity. The phenomenon observed in FIG. 20A would've been easily missed by traditional single-point assays such as MTT.
Yet another major advantage of using the RT-CES system to continually monitor the interaction of drugs with target cells is that the user can obtain insight into the mechanism of action of the drug of interest. […] The cells were treated with either DMSO as the vehicle control or with 100 μM Olomoucine which is a CDK inhibitor and induces cell cycle arrest either at G1→S transition or at the G2→M transition, depending on the cell line. […] The control cells treated with DMSO continue to proliferate until they reach confluence, at which time they are contact inhibited and the Cell Index recording levels off. […]
as §1

H460 cells = assay: Time-dependent cell index of cancer cells treated with anticancer drug (cell-substrate impedance)
Experimental: In this experiment, H460 cells were introduced into chambers of a 16X cell-substrate impedance monitoring cartridge (16X E-Plate). The cartridge was positioned on a cartridge station that was located in an incubator maintaining conditions of 37° C. and 5% CO2. The cells were cultured and treated at their exponential growth phase with different concentrations of paclitaxel. The dynamic response of the cells to different doses of paclitaxel was monitored by monitoring cell-substrate impedance in real time every 15 minutes for 50 hours after treatment using a cell-substrate impedance monitoring system. The cell-substrate impedance monitoring system calculated the cell index at each time point monitored and plotted the cell index as a function of time. […] However, the cell index reached a minimum at a time dependent on the compound concentration, between about 15 hours and 20 hours after compound addition. After that point, there was a gradual increase in cell index in these chambers.
H460 cells were introduced into chambers of a 16X cell-substrate impedance monitoring cartridge (16X E-Plate). […] The dynamic response of the cells to different doses of AC101103 was monitored by measuring impedance in real time every 30 minutes for about 20 hours after treatment on the cell-substrate monitoring system. […]

[2] = A549 cells, highest concentration

SMILES | inhibition of NK-92-mediated cytolysis ([1]; NK-92 pre-incubated with inhibitor, then added to A549 target cells) | time dependence of percent inhibition of cytolysis ([1]; different time points after NK addition) | effect of inhibitor alone on target cell baseline (A549 cells; A549 target cells incubated with inhibitor alone, no NK cells) | time over which cell index exhibited a near-constant value (H460 cells; 33 nanomolar) | cell index response after compound addition (H460 cells; concentrations between 67 nanomolar and 500 nanomolar) | initial effect on Cell Index (with Annexin V staining) (A549 cells; [2]) | later course of Cell Index after the initial effect (A549 cells; [2])
COc1cccc(-c2cc(=O)c3ccccc3o2)c1N [PD98059] | dose-dependently inhibited NK-92-mediated cytolysis of A549 cells | consistent inhibition of cytolysis at all the indicated time points | minimal effect on the baseline | – | – | – | –
CC(=O)O[C@H]1C(=O)[C@@]2(C)[C@H]([C@H](OC(=O)c3ccccc3)[C@]3(O)C[C@H](OC(=O)[C@H](O)[C@@H](NC(=O)c4ccccc4)c4ccccc4)C(C)=C1C3(C)C)[C@]1(OC(C)=O)CO[C@@H]1C[C@@H]2O [paclitaxel] | – | – | – | about 15 hours | gradual decrease in cell index | initially induces a cytotoxic effect which is mainly due to cell death | recover from the initial cytotoxic effect of the drug and start to re-proliferate
